Columns and labels:
Assay type in all cases: in vivo
IL-10 KO mice [1] = test: Mortality and growth of IL-10 KO mice fed cholecalciferol (vitamin D sufficient) from weaning
Description: (§1) MICE. Age and sex matched C57BL/6 IL-10 KO, and wildtype (WT) mice were produced in the Pennsylvania State University breeding colony; the breeding pairs were obtained from Jackson Laboratory (Bar Harbor, Me.). The animal facilities at the Pennsylvania State University are specific pathogen free and therefore breeding IL-10 KO mice was successful. All of the procedures described were reviewed and approved by the Pennsylvania State University Institutional Animal Care and Use Committee on Jan. 25, 1999, IACUC# number: 98118-A0.
DIETS. From a single pool of breeding females fed commercial mouse diet (#5105 Ralston Purina Co.), females in the second week of gestation were selected and randomly distributed into two groups. Starting pregnant dams on vitamin D deficient diet ensured that by 5 weeks of age the weanlings were vitamin D deficient (Cantorna et al. 1996). […]
(§2) The 3 week old vitamin D deficient mice were randomly assigned to various treatment groups as described below. […] Symptoms of hypercalcemia monitored daily included overall health and weight loss. […]
(§3) IBD SEVERITY. Mortality associated with the development of diarrhea was recorded in IL-10 KO and WT mice. […] Four or more paraffin sections (4 microns) from each mouse were scored using the exact procedure described by Kuhns et. al (1993). The sections were scored blindly on a scale of 0 to 5 for inflammation. […]

IL-10 KO mice [2] = test: Food restriction experiment, IL-10 KO mice on cholecalciferol diet (+D restricted); conditions: mean ± SEM
Description: as §1
(§4) DIETS. From a single pool of breeding females fed commercial mouse diet (#5105 Ralston Purina Co.), females in the second week of gestation were selected and randomly distributed into two groups. Starting pregnant dams on vitamin D deficient diet ensured that by 5 weeks of age the weanlings were vitamin D deficient (Cantorna et al. 1996). All mice were fed synthetic diets made in the laboratory (Yang et al. 1993; modification of Smith et al. 1987). The mice were vitamin D deficient, vitamin D sufficient or 1,25-dihydroxycholecalciferol supplemented. Mice were housed under yellow light to prevent the synthesis of vitamin D in skin. All of the mice were vitamin D deficient until weaning.
The 3 week old vitamin D deficient mice were randomly assigned to various treatment groups as described below. […] Experimental diets were prepared fresh and replaced every 2-3 days during the experiment. To ensure that 1,25-dihydroxycholecalciferol (1,25(OH)2D3) treated mice ate all of the 1,25(OH)2D3 provided, food cups containing 8 g of diet were replaced every other day (completely eaten) for the duration of each experiment (Cantorna et al. 1996, Cantorna et al. 1998a). […] Symptoms of hypercalcemia monitored daily included overall health and weight loss. […]
as §3

IL-10 KO mice [3] = test: Short term (2 weeks, 0.2 μg/d) 1,25(OH)2D3 treatment of IL-10 KO mice started at first IBD symptoms
Description: as §1, §4
(§5) The 3 week old vitamin D deficient mice were randomly assigned to various treatment groups as described below. […] Experimental diets were prepared fresh and replaced every 2-3 days during the experiment. To ensure that 1,25-dihydroxycholecalciferol (1,25(OH)2D3) treated mice ate all of the 1,25(OH)2D3 provided, food cups containing 8 g of diet were replaced every other day (completely eaten) for the duration of each experiment (Cantorna et al. 1996, Cantorna et al. 1998a). In order to monitor vitamin D toxicity, 1,25(OH)2D3 supplemented mice were observed daily for signs of hypercalcemia. Symptoms of hypercalcemia monitored daily included overall health and weight loss.
In the 3rd experimental design 1,25(OH)2D3 treatment was started at the first signs of IBD symptoms (diarrhea, 7 weeks of age). Seven week old vitamin D deficient mice were split into 2 groups. One group was maintained vitamin D deficient and the other group was supplemented with 0.2 μg/d 1,25(OH)2D3. The mice were treated for 2 weeks and the 9 week old mice were sacrificed.
as §3, with “mice. In addition the small intestines (SI) were removed and weighed. The jejunum of the […] KO mice is visibly inflamed and has been used by others to monitor symptoms of IBD in mice (Kuhns et al. 1993).” for “mice.”

WT mice = test: 1,25(OH)2D3 supplementation (0.005 μg/d, 4 weeks) of vitamin D deficient WT mice; conditions: 0.005 μg/day 1,25(OH)2D3 for 4 weeks, mean ± SEM
Description: as §1
DIETS. […]
as §2
SERUM MEASUREMENTS. […] Serum was collected every 2 weeks and serum calcium measured (normal for mice is 2.00-2.75 mmol/L). Vitamin D deficiency was also monitored by serum calcium analysis (serum calcium less then 1.75 mmol/L). […] Red blood cells were counted using a hemocytometer.
as §3

IL-10 KO mice [4] = test: 1,25(OH)2D3 supplementation (0.005 μg/d, 4 weeks) of vitamin D deficient IL-10 KO mice, IBD symptoms
Description: as §1, §4, §5
In the 2nd series of experiments 3 week old vitamin D deficient mice were split into 2 groups. One group of mice was maintained on the vitamin D deficient diet and the other group was supplemented with 0.005 μg/d 1,25(OH)2D3. The vitamin D deficient and 1,25(OH)2D3 supplemented mice were sacrificed 4 weeks later at […].
SERUM MEASUREMENTS. Mice were bled at 5 weeks of age and at the end of the experiments to measure hemoglobin, calcium, and red blood cell numbers. Serum was collected every 2 weeks and serum calcium measured (normal for mice is 2.00-2.75 mmol/L). Vitamin D deficiency was also monitored by serum calcium analysis (serum calcium less then 1.75 mmol/L). Calcium (587-A) and hemoglobin (525-A) colorometric kits were from Sigma Chemical Co. (St. Louis, Mo.). Red blood cells were counted using a hemocytometer.
IBD SEVERITY. Mortality associated with the development of diarrhea was recorded in IL-10 KO and WT mice. In addition the small intestines (SI) were removed and weighed. The jejunum of the […] KO mice is visibly inflamed and has been used by others to monitor symptoms of IBD in mice (Kuhns et al. 1993). The jejunum of the SI was saved in 100 g/L formalin in phosphate buffered saline solution and sent to the Penn State Diagnostic Laboratory for sectioning and staining with hematoxyalin and eosin. Four or more paraffin sections (4 microns) from each mouse were scored using the exact procedure described by Kuhns et. al (1993). The sections were scored blindly on a scale of 0 to 5 for inflammation. […]

[5] = 5.0 μg/d cholecalciferol for 4 weeks
[6] = 0.2 μg/d 1,25(OH)2D3 for 2 weeks from 7 weeks of age, mean ± SEM
[7] = treatment for as little as 2 weeks
[8] = 1,25(OH)2D3 supplemented IL-10 KO and WT mice, data not shown

Structure (SMILES) | Diarrhea and mortality (IL-10 KO mice [1]; 5.0 μg cholecalciferol/d from weaning (FIG. 1)) | Growth (body weight curve) (IL-10 KO mice [1]; 5.0 μg cholecalciferol/d from weaning, compared to vitamin D deficient IL-10 KO mice (FIG. 2)) | Weight (IL-10 KO mice [2]; 5.0 μg/d cholecalciferol for 4 weeks from 5 weeks of age) [g] | Small Intestine g (IL-10 KO mice [2]; [5]) [g] | Small Intestine g/100 g body (IL-10 KO mice [2]; [5]) [g/100 g body] | Small Intestine g (IL-10 KO mice [3]; [6]) [g] | Small Intestine g/100 g body (IL-10 KO mice [3]; [6]) [g/100 g body] | IBD symptoms (IL-10 KO mice [3]; [7]) | Inflammation in the small intestine (IL-10 KO mice [3]; [7]) | Serum Calcium (WT mice) [mmol/L] | Erythrocyte numbers (IL-10 KO mice [4]; [8]) | Hemoglobin levels (IL-10 KO mice [4]; [8]) | Weight (IL-10 KO mice [4]; IL-10 KO mice, 0.005 μg/day 1,25(OH)2D3 for 4 weeks, 9 weeks of age, mean ± SEM) [g] | Serum Calcium (IL-10 KO mice [4]; IL-10 KO mice, 0.005 μg/day 1,25(OH)2D3 for 4 weeks, mean ± SEM) [mmol/L] | Histology Score (IL-10 KO mice [4]; IL-10 KO mice, small intestine (jejunum) inflammation, scale 0 to 5, 0.005 μg/day for 4 weeks, mean ± SEM)
C=C1CC[C@H](O)C/C1=C/C=C1\CCC[C@]2(C)[C@@H]([C@H](C)CCCC(C)C)CC[C@@H]12 [cholecalciferol] | did not develop diarrhea or die | grew rapidly | 16.1 ± 1.1 | 1.00 ± 0.02 | 6.2 ± 0.3 |  |  |  |  |  |  |  |  |  | 
C=C1/C(=C\C=C2/CCC[C@]3(C)[C@@H]([C@H](C)CCCC(C)(C)O)CC[C@@H]23)C[C@@H](O)C[C@@H]1O [1,25(OH)2D3, 1,25-dihydroxycholecalciferol] |  |  |  |  |  | 1.08 ± 0.05 | 5.4 ± 0.3 | ameliorated IBD symptoms | reduced the inflammation | 2.72 ± 0.25 | normal and not different | normal and not different | 20.9 ± 0.8 | 3.00 ± 0.30 | 1.7 ± 0.4

From patent US20030188756A1, “Treatment of inflammatory bowel disease with vitamin d compounds” (priority 2002, published 2003)
